Structures can show the parent of a compound that is named as a salt.
Assays:
human PDE4D = target: T1, human PDE4D (Homo sapiens, UniProt Q08499); assay: PDE4 Isoenzyme Inhibition Assay (Scintillation Proximity Assay, [3H]-cAMP); type: biochemical; conditions: recombinant 6His-tagged human PDE4D3 expressed in Sf21 cells; 1 μM cAMP; 1% DMSO; room temperature
T1 construct: PDE4 cDNA constructs containing the coding regions of the three isoenzymes; made in house; host or cells: Sf21 (Spodoptera frugiperda) insect cells, baculovirus (Bac-To-Bac)
T1 sequence (Q08499 1-673 isoform Q08499-2): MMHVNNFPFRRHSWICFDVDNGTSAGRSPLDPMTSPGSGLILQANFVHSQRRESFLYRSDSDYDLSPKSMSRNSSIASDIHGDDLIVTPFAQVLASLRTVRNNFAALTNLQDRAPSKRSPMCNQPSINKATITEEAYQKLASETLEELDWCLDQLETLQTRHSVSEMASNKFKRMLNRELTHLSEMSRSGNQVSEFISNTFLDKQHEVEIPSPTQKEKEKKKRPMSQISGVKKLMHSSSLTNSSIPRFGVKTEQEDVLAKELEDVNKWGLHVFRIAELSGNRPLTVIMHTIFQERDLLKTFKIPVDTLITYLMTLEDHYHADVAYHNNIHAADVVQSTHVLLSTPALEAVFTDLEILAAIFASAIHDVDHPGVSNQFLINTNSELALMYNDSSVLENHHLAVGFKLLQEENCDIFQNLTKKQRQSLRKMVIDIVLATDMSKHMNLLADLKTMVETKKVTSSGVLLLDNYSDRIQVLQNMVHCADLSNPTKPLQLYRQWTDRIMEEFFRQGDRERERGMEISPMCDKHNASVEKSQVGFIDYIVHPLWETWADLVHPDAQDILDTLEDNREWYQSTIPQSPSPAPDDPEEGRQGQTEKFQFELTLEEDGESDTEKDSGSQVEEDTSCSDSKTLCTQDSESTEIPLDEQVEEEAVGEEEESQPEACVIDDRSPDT
Method: PDE4 Expression: Sf21 cells are grown to a density of 2×10^6 cells/ml and infected with human PDE4A, PDE4B or PDE4D3 containing baculovirus to a multiplicity of infection (m.o.i.) of 1 for 72 hours. The infected cells are harvested by centrifugation at 1,400 g for 4 minutes at 4° C. and the cell pellets are frozen at −80° C. Sf21 (Spodoptera frugiperda 21) insect cells are routinely maintained at densities between 3×105 and 3×10^6 cells/ml in SF00 Serum Free Medium (Invitorgen Life Technologies). Sf21 cells (1×109) are resuspended in 100 ml cold (4° C.) Lysis Buffer (50 mM Na2HP04, 200 mM NaCl, 10 mM Imidazole). Cells are incubated on ice for 30 minutes then centrifuged at 15,000 g for 20 minutes at 4° C.
PDE4 Purification: The 6 Histidine-tagged PDE4 proteins are isolated from crude cell lysates by a batch-wise Ni-NTA purification strategy (QIAGEN). N-NTA resin is first pre-rinsed to remove ethanol preservative and equilibrated with Lysis Buffer. Cell lysate is added, (10 ml 50% Ni-NTA slurry resin per 50 ml lysate), and gently rotated on a mixer at 4° C. for 1-2 h. The sample is then centrifuged at 1,000 g for 5 minutes at 4° C. using Denley benchtop centrifuge. The supernatant is removed and the resin is washed 3 times with 50 ml ice cold Wash Buffer (50 mM Na2HP04, 300 mM NaCl and 20 mM imidazole) followed by centrifugation at 1,000 g for 5 minutes at 4° C. The 6His-tagged protein is eluted from the resin with 3×5 ml ice cold Elution Buffer (50 mM NaH2PO4, 300 mM NaCl, 250 mM imidazole) and collected by centrifugation at 1,000 g for 5 minutes at 4° C. The supernatants are then pooled before buffer exchange and concentration using a VivaScience 20 ml 5K 0.2 μM Concentrator. Samples are aliquoted and stored at −20° C.
PDE4 Assay: The assay is based on Amersham Pharmacia Biotech Scintillation Proximity Assay (SPA) technology. Enzyme is diluted with enzyme dilution buffer (10 mM Tris-HCl, pH 7.5 containing 1 mM EDTA) in order to obtain between 10-30% total substrate hydrolysis during the assay. The enzymatic reaction is started by adding 10 μl diluted enzyme to 80 μl substrate (0.1 μCi [3H]-cAMP, 1 μM cAMP) and 10 μl inhibitor solution in a 96-well microtiter plate. After 30-60 minutes incubation at room temperature the reaction is stopped by adding 50 μl PDE SPA beads (20 mg/ml). After 30 minutes the plate is centrifuged (3000 g, 10 minutes) and counted (Packard TopCount).
The concentration of DMSO is kept constant at 1% (v/v) throughout the assay. The concentration at which 50% inhibition occurs (IC50) is determined from inhibition—concentration curves in a conventional manner.

Compound | melting point | IC50 (human PDE4D)
O=C(O)C1CCN(c2cc3cccnc3c(-c3ccc(F)c(Cl)c3)n2)CC1 [Example 39] | – | 8 nM
N#Cc1cccc(-c2nc(N3CCC(C(=O)[O-])CC3)cc3cccnc23)c1.[Li+] [Example 3, 1-[8-(3-Cyano-phenyl)-[1,7]naphthyridin-6-yl]-piperidine-4-carboxylic acid, Lithium salt] | > 200 °C | 3.1 nM
N#Cc1cccc(-c2nc(N3CCC(O)C3)cc3cccnc23)c1 (centres unmarked) [Example 1, 3-[6-(3-Hydroxy-pyrrolidin-1-yl)-[1,7]naphthyridin-8-yl]-benzonitrile] | 132 to 133 °C | 1 nM

Other lines, results leading:

melting point | IC50 (human PDE4D) | Compound
> 250 °C | – | N#Cc1cccc(-c2nc(N3CCNCC3)cc3cccnc23)c1 (as salt: hydrochloride) [Example 4, 3-(6-Piperazin-1-yl-[1,7]naphthyridin-8-yl)-benzonitrile]
– | 10.4 nM | CN1CCN(c2cc3cccnc3c(-c3cccc(C#N)c3)n2)CC1 [Example 15]
– | 2.5 nM | N#Cc1cccc(-c2nc(N3CCOCC3)cc3cccnc23)c1 [Example 12]

Source: patent US7468370B2, “[1,7]naphthyridines as PDE4 inhibitors” (Novartis AG, priority 2002, dated 2008)
